Results reported in article PMC8383264, “Structural Characterization of the Reaction and Substrate Specificity Mechanisms of Pathogenic Fungal Acetyl-CoA Synthetases” (ACS Chemical Biology, 2021).

Tests used:
C. immitis Acs1 = C. immitis Acs1 (Coccidioides immitis, UniProt J3KJC6); conditions: 37 °C
C. posadasii Acs1 = C. posadasii Acs1 (Coccidioides posadasii, UniProt C5PGB4); conditions: 37 °C
CnAcs1 = CnAcs1 (Cryptococcus neoformans, UniProt J9VFT1); assay: Coupled continuous pyrophosphate detection assay (EnzChek) of ACS activity
CnAcs1, sequence (J9VFT1 entry or part of it): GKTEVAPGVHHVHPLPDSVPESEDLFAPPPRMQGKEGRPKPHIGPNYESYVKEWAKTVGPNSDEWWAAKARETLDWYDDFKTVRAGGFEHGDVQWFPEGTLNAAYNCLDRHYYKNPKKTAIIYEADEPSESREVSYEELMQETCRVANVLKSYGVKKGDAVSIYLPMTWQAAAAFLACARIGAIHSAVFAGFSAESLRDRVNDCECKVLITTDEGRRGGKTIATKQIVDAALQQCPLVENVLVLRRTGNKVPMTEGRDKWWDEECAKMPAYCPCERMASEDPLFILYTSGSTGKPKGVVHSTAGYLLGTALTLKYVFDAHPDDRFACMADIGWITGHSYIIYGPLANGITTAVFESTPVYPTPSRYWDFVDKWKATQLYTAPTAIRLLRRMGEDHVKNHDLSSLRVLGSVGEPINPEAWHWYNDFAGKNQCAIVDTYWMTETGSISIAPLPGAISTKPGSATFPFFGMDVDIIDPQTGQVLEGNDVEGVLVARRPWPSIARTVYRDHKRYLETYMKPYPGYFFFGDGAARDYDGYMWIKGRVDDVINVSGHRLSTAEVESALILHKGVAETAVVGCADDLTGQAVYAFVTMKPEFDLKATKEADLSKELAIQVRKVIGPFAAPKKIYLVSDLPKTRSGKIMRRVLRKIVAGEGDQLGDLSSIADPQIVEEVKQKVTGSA

A. fumigatus Acs1 = biological target: T1, A. fumigatus Acs1 (Aspergillus fumigatus, UniProt Q4WQ02); assay: as above; conditions: substrate Km; other substrates in excess; 37 °C; ±S.E.M.
T1 sequence (Q4WQ02 2-670): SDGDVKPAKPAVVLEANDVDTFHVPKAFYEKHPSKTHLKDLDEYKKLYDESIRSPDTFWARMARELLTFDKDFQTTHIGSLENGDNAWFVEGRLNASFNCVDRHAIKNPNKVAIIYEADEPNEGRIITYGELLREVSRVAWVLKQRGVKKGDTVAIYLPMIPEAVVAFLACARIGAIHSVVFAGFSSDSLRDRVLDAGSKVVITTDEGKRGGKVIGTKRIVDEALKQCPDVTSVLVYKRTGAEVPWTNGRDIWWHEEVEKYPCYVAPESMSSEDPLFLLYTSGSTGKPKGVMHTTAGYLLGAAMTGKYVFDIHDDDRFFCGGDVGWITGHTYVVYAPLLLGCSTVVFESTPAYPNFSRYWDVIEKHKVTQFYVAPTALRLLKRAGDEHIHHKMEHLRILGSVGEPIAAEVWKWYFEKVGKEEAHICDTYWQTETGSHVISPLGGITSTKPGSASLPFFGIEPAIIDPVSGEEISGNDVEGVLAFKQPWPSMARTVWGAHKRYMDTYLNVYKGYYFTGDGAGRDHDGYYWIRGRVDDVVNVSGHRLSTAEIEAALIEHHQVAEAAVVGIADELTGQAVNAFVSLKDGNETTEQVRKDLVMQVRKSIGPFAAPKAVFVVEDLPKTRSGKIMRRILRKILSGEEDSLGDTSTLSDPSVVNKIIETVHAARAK

C. albicans Acs1 = C. albicans Acs1 (Candida albicans, UniProt Q8NJN3); assay: as above; conditions: 37 °C
C. albicans Acs1, sequence (Q8NJN3 2-671 limits assumed): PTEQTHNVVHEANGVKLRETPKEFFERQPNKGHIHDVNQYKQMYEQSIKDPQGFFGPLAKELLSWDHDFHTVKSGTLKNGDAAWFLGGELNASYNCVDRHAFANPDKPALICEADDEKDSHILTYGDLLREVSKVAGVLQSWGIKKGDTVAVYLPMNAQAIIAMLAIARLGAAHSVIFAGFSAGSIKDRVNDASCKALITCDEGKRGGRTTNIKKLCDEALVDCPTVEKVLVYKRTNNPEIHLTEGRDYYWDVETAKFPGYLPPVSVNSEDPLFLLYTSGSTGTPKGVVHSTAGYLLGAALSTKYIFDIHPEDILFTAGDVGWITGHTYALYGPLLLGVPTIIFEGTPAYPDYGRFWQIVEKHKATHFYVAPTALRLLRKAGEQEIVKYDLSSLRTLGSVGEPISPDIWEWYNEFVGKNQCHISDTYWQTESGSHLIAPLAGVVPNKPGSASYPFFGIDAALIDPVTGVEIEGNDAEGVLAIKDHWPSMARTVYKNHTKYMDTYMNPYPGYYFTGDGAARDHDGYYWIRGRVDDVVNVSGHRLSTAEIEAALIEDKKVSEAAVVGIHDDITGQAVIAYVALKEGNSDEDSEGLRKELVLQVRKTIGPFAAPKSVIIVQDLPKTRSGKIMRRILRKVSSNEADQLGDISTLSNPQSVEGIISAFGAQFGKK

S. cerevisiae Acs1 = biological target: T2, S. cerevisiae Acs1 (Saccharomyces cerevisiae, UniProt Q01574); assay: as above; conditions: 37 °C
T2 sequence (Q01574 1-713): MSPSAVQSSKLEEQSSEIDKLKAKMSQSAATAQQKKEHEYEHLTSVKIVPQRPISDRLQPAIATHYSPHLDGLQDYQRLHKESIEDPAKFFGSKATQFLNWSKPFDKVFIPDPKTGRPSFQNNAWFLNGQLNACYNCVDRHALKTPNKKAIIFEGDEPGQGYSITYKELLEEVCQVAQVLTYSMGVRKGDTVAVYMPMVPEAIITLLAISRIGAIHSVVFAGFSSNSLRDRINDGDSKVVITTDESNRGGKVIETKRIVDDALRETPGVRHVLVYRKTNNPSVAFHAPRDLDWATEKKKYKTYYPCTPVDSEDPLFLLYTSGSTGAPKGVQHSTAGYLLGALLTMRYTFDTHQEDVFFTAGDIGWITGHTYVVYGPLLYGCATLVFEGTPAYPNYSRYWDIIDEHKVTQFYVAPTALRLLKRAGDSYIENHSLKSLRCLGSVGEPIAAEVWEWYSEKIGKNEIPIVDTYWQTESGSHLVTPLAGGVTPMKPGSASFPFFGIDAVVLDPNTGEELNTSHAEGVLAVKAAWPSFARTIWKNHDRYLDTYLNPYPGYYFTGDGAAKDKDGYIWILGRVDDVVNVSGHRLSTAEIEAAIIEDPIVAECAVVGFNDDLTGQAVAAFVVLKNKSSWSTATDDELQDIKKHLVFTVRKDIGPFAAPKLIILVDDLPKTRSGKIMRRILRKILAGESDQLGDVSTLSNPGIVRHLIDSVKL

C. posadasii Acs1, sequence (C5PGB4 2-691 limits assumed): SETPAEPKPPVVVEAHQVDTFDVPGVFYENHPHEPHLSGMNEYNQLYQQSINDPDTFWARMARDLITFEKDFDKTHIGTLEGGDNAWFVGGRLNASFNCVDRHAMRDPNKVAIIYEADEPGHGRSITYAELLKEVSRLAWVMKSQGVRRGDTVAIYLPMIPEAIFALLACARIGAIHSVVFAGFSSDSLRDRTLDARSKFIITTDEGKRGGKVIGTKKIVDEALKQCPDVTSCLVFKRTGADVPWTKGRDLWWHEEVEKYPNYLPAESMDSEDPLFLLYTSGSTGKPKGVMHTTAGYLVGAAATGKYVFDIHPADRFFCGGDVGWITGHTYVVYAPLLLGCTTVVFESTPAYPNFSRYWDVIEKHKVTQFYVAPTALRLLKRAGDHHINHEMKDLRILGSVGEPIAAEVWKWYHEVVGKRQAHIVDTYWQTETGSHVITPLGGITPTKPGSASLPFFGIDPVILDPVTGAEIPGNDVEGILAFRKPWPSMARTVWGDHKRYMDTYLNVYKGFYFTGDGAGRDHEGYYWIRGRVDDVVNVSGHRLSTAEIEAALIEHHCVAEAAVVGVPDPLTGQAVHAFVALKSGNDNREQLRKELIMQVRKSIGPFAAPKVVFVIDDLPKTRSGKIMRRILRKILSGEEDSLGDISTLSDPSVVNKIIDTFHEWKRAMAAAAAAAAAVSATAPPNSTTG
C. immitis Acs1, sequence (J3KJC6 2-691 limits assumed): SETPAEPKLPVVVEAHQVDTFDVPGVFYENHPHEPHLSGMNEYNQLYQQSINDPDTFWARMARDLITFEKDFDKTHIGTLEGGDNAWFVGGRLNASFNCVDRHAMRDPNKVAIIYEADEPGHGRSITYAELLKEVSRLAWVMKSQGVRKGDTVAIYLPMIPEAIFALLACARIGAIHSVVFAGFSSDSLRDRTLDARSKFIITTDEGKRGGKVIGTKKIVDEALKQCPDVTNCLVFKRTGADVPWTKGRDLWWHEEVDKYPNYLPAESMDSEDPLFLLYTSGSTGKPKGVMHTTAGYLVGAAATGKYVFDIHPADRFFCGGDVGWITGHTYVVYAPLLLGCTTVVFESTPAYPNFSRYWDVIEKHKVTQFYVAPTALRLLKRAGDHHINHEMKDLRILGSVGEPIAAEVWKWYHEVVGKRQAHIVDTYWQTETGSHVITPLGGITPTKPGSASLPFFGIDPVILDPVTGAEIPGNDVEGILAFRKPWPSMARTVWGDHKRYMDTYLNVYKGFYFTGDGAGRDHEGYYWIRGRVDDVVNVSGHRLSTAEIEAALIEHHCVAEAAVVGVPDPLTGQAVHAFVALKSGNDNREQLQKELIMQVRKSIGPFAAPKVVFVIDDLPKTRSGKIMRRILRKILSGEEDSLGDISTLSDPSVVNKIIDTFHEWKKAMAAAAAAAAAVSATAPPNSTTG

`CC(=O)O` [acetate, reference compound] was tested, and the Km (C. immitis Acs1) was 32 ± 5 µM, the Km (C. posadasii Acs1) was 27 ± 2 µM and the “utilization as substrate for CnAcs1” value (CnAcs1; alternative acid substrates) was “optimum substrate”. For the same compound, the “calculated binding energy ΔG” value (CnAcs1; calculated for substrate binding) was -5.5 kcal/mol, the Km (CnAcs1; substrate Km, other substrates in excess (ATP 2.5 mM, CoA 1 mM, sodium acetate 0.5 mM), 37 °C, ±S.E.M.) was 130 ± 40 µM and the Km (A. fumigatus Acs1) was 18 ± 2 µM. It also gave a Km (C. albicans Acs1) of 79 ± 7 µM and a Km (S. cerevisiae Acs1) of 63 ± 13 µM.
